{"source": "paper PMC2234480", "about": "(The Journal of General Physiology, 2003)", "origin": "cited, not measured here", "system": "CLC-0", "details": "ref Pusch et al., 2001"}
{"compound": "CCC(Oc1ccc(Cl)cc1)C(=O)O", "note": "(centres unmarked) [CPB, p-chlorophenoxy-butyric acid]", "values": [{"measurement": "relief of block at positive voltages", "setting": "5 mM CPB, V > 40 mV", "result": "complete unblock"}, {"measurement": "affinity for closed channels", "setting": "model from macroscopic and single-channel analysis", "result": "submillimolar affinity"}]}
